Test results from patent publication US20230321100A1, “CD73 INHIBITOR AND APPLICATION THEREOF IN MEDICINE” (BETTA PHARMACEUTICALS CO., LTD, priority 2020, published 2023).

Each compound was assayed against T1, CD73 (Calu-6 cells) (Homo sapiens, UniProt P21589) (assay: Enzymatic activity detection at the cellular level (Calu-6 cells, AMP substrate, Cell-titer Glo luminescence)). Details: enzymatic IC50 at the Calu-6 cell level, 30 min pre-incubation, 120 min at 37° C.
T1 construct: endogenous in cells; host or cells: Calu-6 cells
T1 sequence (P21589 27-549): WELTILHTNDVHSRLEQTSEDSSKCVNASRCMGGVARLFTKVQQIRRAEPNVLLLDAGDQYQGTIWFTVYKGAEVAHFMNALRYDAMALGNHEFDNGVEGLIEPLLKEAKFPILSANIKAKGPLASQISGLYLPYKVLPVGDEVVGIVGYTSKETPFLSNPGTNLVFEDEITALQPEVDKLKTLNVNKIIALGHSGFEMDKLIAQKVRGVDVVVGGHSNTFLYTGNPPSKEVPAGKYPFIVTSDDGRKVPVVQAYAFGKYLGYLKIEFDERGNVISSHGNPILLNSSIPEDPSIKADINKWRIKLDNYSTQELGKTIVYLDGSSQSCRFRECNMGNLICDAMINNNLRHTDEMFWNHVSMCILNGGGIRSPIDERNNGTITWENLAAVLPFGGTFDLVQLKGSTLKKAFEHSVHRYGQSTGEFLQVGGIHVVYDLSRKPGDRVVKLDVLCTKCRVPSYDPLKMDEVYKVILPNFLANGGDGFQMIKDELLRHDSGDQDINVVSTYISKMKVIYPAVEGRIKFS
Format: cell-based
Description: The Calu-6 cells were digested and re-suspended using TM buffer (25 mM Tris, 5 mM MgCl2, pH 7.5). Calu-6 cell suspension was seeded into 96 well cell culture plate, and the number of cells per well was 2.5×10^4, adding volume of 100 μL/well. Compound solution with gradient concentration was prepared by TM buffer, and 50 μL DMSO solution with different concentration was added into each pore cell. […] Pre-incubated in a shaker at 37° C. for 30 min. Each well was added with 50 μL 800 μM AMP solution. The shaker at 37° C. for 120 min was continued to incubate, then the 96-well plates were centrifuged and 50 μL supernatant was transferred to the new 96-well plates. […] The luminescence value was read by the multi-function enzymatic reader and converted into the inhibition percentage: Inhibition percentage=(1−reading/Max)*100. The “maximum value” was DMSO control. IC50 values were obtained by curve fitting with GraphPad Prism software.
N#Cc1nnc(-c2c[nH]c(=O)[nH]c2=O)cc1C1CC1c1ccccc1 (stereo not drawn) [Compound 34, 6-(2,4-dioxo-1,2,3,4-tetrahydropyrimidin-5-yl)-4-(2-phenylcyclopropyl)pyridazine-3-carbonitrile] gave an IC50 of 5.9 nM.
In the case of N#Cc1nnc(-c2c[nH]c(=O)[nH]c2=O)cc1C1CC1c1ccc(F)cc1 (stereo not drawn) [Compound 35, 6-(2,4-dioxo-1,2,3,4-tetrahydropyrimidin-5-yl)-4-(2-(4-fluorophenyl)cyclopropyl)pyridazine-3-carbonitrile], the IC50 is reported as 1.1 nM.
N#Cc1nnc(-c2c[nH]c(=O)[nH]c2=O)cc1C1CC1c1ccc(Cl)cc1 (stereo not drawn) [Compound 36, 4-(2-(4-chlorophenyl)cyclopropyl)-6-(2,4-dioxo-1,2,3,4-tetrahydropyrimidin-5-yl)pyridazine-3-carbonitrile] was tested, and the IC50 was 1.9 nM.
O=c1[nH]cc(-c2cc([C@H]3C[C@@H]3C#Cc3ccncc3)c(Cl)nn2)c(=O)[nH]1 [Compound 37, 5-(6-chloro-5-((1S,2S)-2-(pyridin-4-ylethynyl)cyclopropyl)pyridazin-3-yl)pyrimidine-2,4(1H, 3H)-dione] was tested, and the IC50 was 1.2 nM.
Work on N#Cc1ccc(C#C[C@H]2C[C@@H]2c2cc(-c3c[nH]c(=O)[nH]c3=O)nnc2Cl)nc1 [Compound 38, 6-(((1S,2S)-2-(3-chloro-6-(2,4-dioxo-1,2,3,4-tetrahydropyrimidin-5-yl)pyridazin-4-yl)cyclopropyl)ethynyl)nicotinonitrile] yielded an IC50 of 3.7 nM.
C=C[C@H]1C[C@@H]1c1cc(-c2c[nH]c(=O)[nH]c2=O)nnc1OC [Compound 39, 5-(6-methoxy-S-((1S,2R)-2-vinylcyclopropyl)pyridazin-3-yl)pyrimidine-2,4(1H,3H)-dione] showed an IC50 of 2.5 nM.
Compound Cc1nnc(-c2c[nH]c(=O)[nH]c2=O)cc1[C@H]1C[C@@H]1C#Cc1ccccc1 [Compound 41, 5-(6-methyl-5-((1S,2S)-2-(phenylethynyl)cyclopropyl)pyridazin-3-yl)pyrimidine-2,4(1H,3H)-dione] has an IC50 of 7.5 nM.
In the case of O=c1[nH]cc(-c2cc([C@H]3C[C@@H]3C#Cc3cccnc3)c(Cl)nn2)c(=O)[nH]1 [Compound 42], the IC50 is reported as 4.4 nM.
For O=c1[nH]cc(-c2cc([C@H]3C[C@@H]3C#Cc3ccccn3)c(Cl)nn2)c(=O)[nH]1 [Compound 43], the IC50 was 3.7 nM.
COc1ccc(C#C[C@H]2C[C@@H]2c2cc(-c3c[nH]c(=O)[nH]c3=O)nnc2Cl)cc1 [Compound 44] gave an IC50 of 3.1 nM.
Compound N#Cc1ccc(C#C[C@H]2C[C@@H]2c2cc(-c3c[nH]c(=O)[nH]c3=O)nnc2Cl)cc1 [Compound 45] has an IC50 of 1.5 nM.
Compound N#Cc1ccccc1C#C[C@H]1C[C@@H]1c1cc(-c2c[nH]c(=O)[nH]c2=O)nnc1Cl [Compound 46] has an IC50 of 4.4 nM.
For O=c1[nH]cc(-c2cc([C@H]3C[C@@H]3C#Cc3ccc(Cl)cc3)c(Cl)nn2)c(=O)[nH]1 [Compound 47], the IC50 was 7.8 nM.
O=c1[nH]cc(-c2cc([C@H]3C[C@@H]3C#Cc3ccc(F)cc3)c(Cl)nn2)c(=O)[nH]1 [Compound 48] was tested, and the IC50 was 3.8 nM.
Compound COc1nnc(-c2c[nH]c(=O)[nH]c2=O)cc1[C@H]1C[C@@H]1C#Cc1ccc(C#N)cc1 [Compound 50] has an IC50 of 12.6 nM.
In the case of COc1nnc(-c2c[nH]c(=O)[nH]c2=O)cc1[C@H]1C[C@@H]1C#Cc1cccc(C#N)c1 [Compound 51], the IC50 is reported as 4.3 nM.
In the case of COc1nnc(-c2c[nH]c(=O)[nH]c2=O)cc1[C@H]1C[C@@H]1C#Cc1ccccn1 [Compound 52], the IC50 is reported as 5.8 nM.
Compound COc1nnc(-c2c[nH]c(=O)[nH]c2=O)cc1[C@H]1C[C@@H]1C#Cc1cccnc1 [Compound 53] has an IC50 of 2.4 nM.
Work on N#Cc1nnc(-c2c[nH]c(=O)[nH]c2=O)cc1[C@H]1C[C@@H]1C#Cc1ccccc1 [Compound 54] yielded an IC50 of 8.2 nM.
In the case of N#Cc1ccc(C#C[C@H]2C[C@@H]2c2cc(-c3c[nH]c(=O)[nH]c3=O)nnc2C#N)cc1 [Compound 55], the IC50 is reported as 5.6 nM.
In the case of N#Cc1nnc(-c2c[nH]c(=O)[nH]c2=O)cc1[C@H]1C[C@@H]1C#Cc1ccccn1 [Compound 56], the IC50 is reported as 19.4 nM.
